Values joined by “and” are separate entries in the source; they are usually repeats but may differ in a detail not shown here. Equal values may be shown once. Inconclusive results and toxic doses are left out.
Tested on: BDF1 mice, B16 melanoma ip, median survival T/C
Assay: NCI In Vivo Anticancer Drug Screen. Data for tumor model B16 Melanoma (intraperitoneal) in B6D2F1 (BDF1) mice
Details: endpoint: median survival time, higher = longer survival
Procedure, shortened: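 Values are ratios of treated (T) to vehicle-control (C) measurements of survival or tumor size in tumor-bearing mice.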

[1] = dose: 100.0 mg/kg/injection, schedule: Q01DX009 (ip), vehicle: Klucel (hydroxypropylcellulose) (HPC)
[2] = dose: 200.0 mg/kg/injection, schedule: Q01DX009 (ip), vehicle: Klucel (hydroxypropylcellulose) (HPC)
[3] = dose: 6.25 mg/kg/injection, schedule: Q01DX009 (ip), vehicle: saline with Tween-80
[4] = dose: 12.5 mg/kg/injection, schedule: Q01DX009 (ip), vehicle: saline with Tween-80
[5] = dose: 100.0 mg/kg/injection, schedule: Q01DX009 (ip), vehicle: saline with Tween-80
[6] = dose: 25.0 mg/kg/injection, schedule: Q01DX009 (ip), vehicle: saline with Tween-80
[7] = dose: 100.0 mg/kg/injection, schedule: Q04DX003 (ip), vehicle: Klucel (hydroxypropylcellulose) (HPC)
[8] = dose: 25.0 mg/kg/injection, schedule: Q01DX009 (ip), vehicle: saline
[9] = dose: 50.0 mg/kg/injection, schedule: Q01DX009 (ip), vehicle: saline

NNS(=O)(=O)c1ccc(OCC(=O)O)cc1
T/C [1]: 98 % of control
T/C [2]: 97 % of control
T/C (dose: 400.0 mg/kg/injection, schedule: Q01DX009 (ip), vehicle: Klucel (hydroxypropylcellulose) (HPC)): 93 % of control

CSc1nc(Cl)c(Br)c(Cl)n1
T/C (dose: 1.56 mg/kg/injection, schedule: Q01DX009 (ip), vehicle: saline with Tween-80): 110 % of control
T/C (dose: 3.13 mg/kg/injection, schedule: Q01DX009 (ip), vehicle: saline with Tween-80): 112 % of control
T/C [3]: 102 % of control
T/C [4]: 108 % of control

[N-]=[N+]=C1Cc2ccccc2C1=O
T/C [1]: 97 % of control
T/C [2]: 105 % of control

COc1ccc(-c2csc(=[N+]3CCCCC3)s2)cc1
T/C (dose: 1.56 mg/kg/injection, schedule: Q01DX009 (ip), vehicle: water): 94 % of control and 95 % of control
T/C (dose: 3.12 mg/kg/injection, schedule: Q01DX009 (ip), vehicle: water): 90 % of control and 101 % of control
T/C (dose: 6.25 mg/kg/injection, schedule: Q01DX009 (ip), vehicle: water): 101 % of control and 102 % of control
T/C (dose: 12.5 mg/kg/injection, schedule: Q01DX009 (ip), vehicle: water): 103 % of control and 109 % of control
T/C (dose: 25.0 mg/kg/injection, schedule: Q01DX009 (ip), vehicle: water): 86 % of control and 110 % of control

S=C(Cc1ccccc1)N1CCN(c2ccc(Cl)cc2)CC1
T/C (dose: 50.0 mg/kg/injection, schedule: Q01DX009 (ip), vehicle: saline with Tween-80): 100 % of control
T/C [5]: 99 % of control
T/C (dose: 200.0 mg/kg/injection, schedule: Q01DX009 (ip), vehicle: saline with Tween-80): 93 % of control

O=C(Nc1ccc(Cl)c(Cl)c1)Nc1c(Oc2ccc(Cl)c(Cl)c2)ccc(Cl)c1S(=O)(=O)O
T/C (dose: 3.12 mg/kg/injection, schedule: Q01DX009 (ip), vehicle: Klucel (hydroxypropylcellulose) (HPC)): 119 % of control
T/C (dose: 6.25 mg/kg/injection, schedule: Q01DX009 (ip), vehicle: Klucel (hydroxypropylcellulose) (HPC)): 105 % of control
T/C [3]: 122 % of control
T/C (dose: 12.5 mg/kg/injection, schedule: Q01DX009 (ip), vehicle: Klucel (hydroxypropylcellulose) (HPC)): 105 % of control
T/C (dose: 25.0 mg/kg/injection, schedule: Q01DX009 (ip), vehicle: Klucel (hydroxypropylcellulose) (HPC)): 116 % of control
T/C [6]: 122 % of control
T/C (dose: 50.0 mg/kg/injection, schedule: Q01DX009 (ip), vehicle: Klucel (hydroxypropylcellulose) (HPC)): 112 % of control
T/C [1]: 123 % of control

CC(=O)NC(=O)Nc1ccccc1
T/C [7]: 97 % of control
T/C (dose: 200.0 mg/kg/injection, schedule: Q04DX003 (ip), vehicle: Klucel (hydroxypropylcellulose) (HPC)): 95 % of control
T/C (dose: 400.0 mg/kg/injection, schedule: Q04DX003 (ip), vehicle: Klucel (hydroxypropylcellulose) (HPC)): 100 % of control

CC(=O)Nc1ccc(CCCCc2cccc(C(=N)N)c2)cc1
T/C (dose: 2.3 mg/kg/injection, schedule: Q04DX003 (ip), vehicle: saline with Tween-80): 86 % of control
T/C (dose: 4.6 mg/kg/injection, schedule: Q04DX003 (ip), vehicle: saline with Tween-80): 86 % of control
T/C (dose: 9.3 mg/kg/injection, schedule: Q04DX003 (ip), vehicle: saline with Tween-80): 95 % of control
T/C [4]: 97 % of control
T/C (dose: 18.75 mg/kg/injection, schedule: Q04DX003 (ip), vehicle: saline with Tween-80): 116 % of control
T/C [6]: 97 % of control

O=c1oc(-c2ccccc2I)nc2ccccc12
T/C [1]: 99 % of control
T/C [2]: 94 % of control

O=[N+]([O-])c1cccc(C(O)C=C(C(F)(F)F)C(F)(F)F)c1 (stereo unspecified)
T/C [6]: 93 % of control
T/C [5]: 86 % of control

O=C(O)CCCc1ccc(N(CCCl)CCCl)cc1
T/C (dose: 0.37 mg/kg/injection, schedule: Q01DX009 (ip), vehicle: Klucel (hydroxypropylcellulose) (HPC)): 100 % of control
T/C (dose: 0.5 mg/kg/injection, schedule: Q01DX009 (ip), vehicle: Klucel (hydroxypropylcellulose) (HPC)): 93 % of control and 104 % of control
T/C (dose: 1.0 mg/kg/injection, schedule: Q01DX009 (ip), vehicle: Klucel (hydroxypropylcellulose) (HPC)): 101 % of control and 104 % of control and 117 % of control
T/C (dose: 1.5 mg/kg/injection, schedule: Q01DX009 (ip), vehicle: Klucel (hydroxypropylcellulose) (HPC)): 88 % of control and 89 % of control
T/C (dose: 1.88 mg/kg/injection, schedule: Q01DX009 (ip), vehicle: Klucel (hydroxypropylcellulose) (HPC)): 112 % of control
T/C (dose: 2.0 mg/kg/injection, schedule: Q01DX009 (ip), vehicle: Klucel (hydroxypropylcellulose) (HPC)): 100 % of control and 107 % of control and 109 % of control
T/C (dose: 2.0 mg/kg/injection, schedule: Q01DX017 (ip), vehicle: saline): 109 % of control
T/C (dose: 3.0 mg/kg/injection, schedule: Q01DX009 (ip), vehicle: Klucel (hydroxypropylcellulose) (HPC)): 86 % of control and 87 % of control
T/C (dose: 3.13 mg/kg/injection, schedule: Q01DX009 (ip), vehicle: saline): 100 % of control
T/C (dose: 3.75 mg/kg/injection, schedule: Q01DX009 (ip), vehicle: Klucel (hydroxypropylcellulose) (HPC)): 110 % of control
T/C (dose: 4.0 mg/kg/injection, schedule: Q01DX009 (ip), vehicle: Klucel (hydroxypropylcellulose) (HPC)): 108 % of control and 109 % of control and 118 % of control
T/C (dose: 4.0 mg/kg/injection, schedule: Q01DX009 (ip), vehicle: saline): 104 % of control
T/C (dose: 4.0 mg/kg/injection, schedule: Q01DX017 (ip), vehicle: saline): 121 % of control
T/C (dose: 6.0 mg/kg/injection, schedule: Q01DX009 (ip), vehicle: Klucel (hydroxypropylcellulose) (HPC)): 89 % of control and 118 % of control
T/C (dose: 6.25 mg/kg/injection, schedule: Q01DX009 (ip), vehicle: saline): 104 % of control
T/C (dose: 7.5 mg/kg/injection, schedule: Q01DX009 (ip), vehicle: Klucel (hydroxypropylcellulose) (HPC)): 116 % of control
T/C (dose: 8.0 mg/kg/injection, schedule: Q01DX001 (ip), vehicle: saline): 95 % of control
T/C (dose: 8.0 mg/kg/injection, schedule: Q01DX009 (ip), vehicle: Klucel (hydroxypropylcellulose) (HPC)): 111 % of control and 120 % of control
T/C (dose: 8.0 mg/kg/injection, schedule: Q01DX009 (ip), vehicle: saline): 119 % of control
T/C (dose: 8.0 mg/kg/injection, schedule: Q04DX003 (ip), vehicle: saline): 122 % of control
T/C (dose: 12.0 mg/kg/injection, schedule: Q01DX009 (ip), vehicle: Klucel (hydroxypropylcellulose) (HPC)): 100 % of control
T/C (dose: 16.0 mg/kg/injection, schedule: Q01DX001 (ip), vehicle: saline): 118 % of control
T/C (dose: 16.0 mg/kg/injection, schedule: Q01DX009 (ip), vehicle: saline): 121 % of control
T/C (dose: 16.0 mg/kg/injection, schedule: Q04DX003 (ip), vehicle: saline): 122 % of control

CS(=O)(=O)c1cc([N+](=O)[O-])cc([N+](=O)[O-])c1Cl
T/C (dose: 0.1 mg/kg/injection, schedule: Q01DX009 (ip), vehicle: saline): 93 % of control
T/C (dose: 0.2 mg/kg/injection, schedule: Q01DX009 (ip), vehicle: saline): 93 % of control
T/C (dose: 0.4 mg/kg/injection, schedule: Q01DX009 (ip), vehicle: saline): 100 % of control
T/C (dose: 0.8 mg/kg/injection, schedule: Q01DX009 (ip), vehicle: saline): 95 % of control
T/C (dose: 1.25 mg/kg/injection, schedule: Q01DX009 (ip), vehicle: saline with Tween-80): 91 % of control
T/C (dose: 2.5 mg/kg/injection, schedule: Q01DX009 (ip), vehicle: saline with Tween-80): 86 % of control

C[N+]1(C)C2CC(=O)CC1C1CC12 (stereo unspecified) (tested in a mixture with another compound)
T/C [8]: 102 % of control
T/C [9]: 89 % of control
T/C (dose: 100.0 mg/kg/injection, schedule: Q01DX009 (ip), vehicle: saline): 99 % of control
T/C (dose: 200.0 mg/kg/injection, schedule: Q01DX009 (ip), vehicle: saline): 100 % of control

C1CCN(CCC2CCNCC2)C1
T/C [8]: 109 % of control
T/C [9]: 90 % of control

O=c1c(O)c(-c2cc(O)c(O)c(O)c2)oc2cc(O)cc(O)c12
T/C (dose: 25.0 mg/kg/injection, schedule: Q02DX009 (ip), vehicle: saline with Tween-80): 95 % of control
T/C (dose: 50.0 mg/kg/injection, schedule: Q02DX009 (ip), vehicle: saline with Tween-80): 110 % of control
T/C (dose: 100.0 mg/kg/injection, schedule: Q02DX009 (ip), vehicle: saline with Tween-80): 105 % of control

CC(C)C1(C(=O)NNC(=O)CCCc2ccc(N(CCCl)CCCl)cc2)OC2(O)CCCCCN2C1=O (stereo unspecified)
T/C (dose: 6.25 mg/kg/injection, schedule: Q04DX003 (ip), vehicle: Klucel (hydroxypropylcellulose) (HPC)): 105 % of control
T/C (dose: 12.5 mg/kg/injection, schedule: Q01DX009 (ip), vehicle: DMSO): 114 % of control
T/C (dose: 12.5 mg/kg/injection, schedule: Q04DX003 (ip), vehicle: Klucel (hydroxypropylcellulose) (HPC)): 118 % of control
T/C [7]: 167 % of control

Source: PubChem BioAssay AID192 (DTP/NCI, 2004)
